Common to all, as to test: NCI-60 cell line screen, 48 h
Assay [1] has as its system SN12C renal.
In assay [2] the test system is NCI-H226 lung.
Assay [3] relates to M14 melanoma.
The test system of assay [4] is OVCAR-5 ovarian.
The subject of assay [5] is EKVX NSCLC.
Assay [6] deals with KM12 colon.
For assay [7], the system named is 786-0 renal.
In assay [8] the test system is NCI-H522 lung.
For assay [9], the system named is HL-60(TB) leukemia.
The test system of assay [10] is PC-3 prostate.

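Test compounds were applied to cells in 96-well plates for 48 hours at 5 doses. GI50 = concentration required for 50% inhibition of growth. Definition used: TGI = concentration required for complete inhibition of growth.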

This note sets out measurements from PubChem BioAssay (NCI).

In the case of `O=c1ncccn1C1OC(CO)C(O)C1O` (configuration not stated), the TGI in assay [1], in assay [2], in assay [3], in assay [4], in [5] and in assay [6] was > 100 µM in each case. Further, the TGI in assay [7] and in assay [8] was > 100 µM in each case.

Turning to `COC(=O)c1c2c(cc3c1CC1(Cc4cc5c(c(C(C)=O)c4C1)CCC5)C3)CCC2` (configuration not stated), the TGI in assay [1] was > 100 µM; in assay [3], > 100 µM; in assay [4], > 100 µM; in assay [6], > 100 µM; in assay [9] it was 86.4 µM; in [7] it was > 100 µM. Further, in [8], the TGI is > 100 µM.

`Cc1cccc(C)c1NC(=O)CCc1nc(=S)[nH][nH]1`: the TGI in assay [1], in assay [2], in assay [3], in assay [4], in [5] and in assay [9] was > 100 µM each time. The TGI in assay [7] and in assay [8] was > 100 µM each time.

`CC(C)(C)C(=CS(=O)/N=C/c1ccccc1)C(C)(C)C` (configuration not stated): the TGI is 51.7 µM in assay [1]; > 100 µM in [2]; > 100 µM in assay [3]; > 100 µM in assay [4]; > 100 µM in assay [5]; > 100 µM in assay [6]. For the same molecule, the TGI in [7] is > 100 µM; in [8], 63.2 µM.

In the case of `COc1ccc(C(=O)C(CC2C(=O)NC(=O)NC2=O)c2ccc(OC)cc2)cc1` (configuration not stated), the TGI in [1], in assay [2], in [3], in assay [4], in [5] and in [6] was > 100 µM in each case. Besides, the TGI in assay [9], in assay [7] and in [8] was > 100 µM each time.

`Cc1cc(N(CCC#N)CCC#N)ccc1N=Nc1ccc(Br)cc1`: the TGI was > 54.8 µM in [1]; > 46.5 µM in assay [2]; > 66 µM in assay [3]; > 100 µM in [4]; > 74.4 µM in assay [5]; > 100 µM in assay [6]. Moreover, the TGI in assay [9] is > 100 µM; in assay [7], 38.3 µM; in assay [8] it was 59.8 µM.

Consider `CC1CCSC(N(C(=O)N(C)c2ccccc2)c2ccccc2)=N1` (configuration not stated), for which the TGI in assay [1], in assay [2], in assay [3], in assay [4], in [5] and in assay [6] was > 100 µM throughout. Moreover, the TGI in assay [9], in assay [7] and in assay [8] was > 100 µM throughout.

On to `COc1cc(NC(=O)CCSc2nc3ccc(C)cc3c(=O)n2Cc2ccccc2)cc(OC)c1OC`, for which the GI50 in assay [1] was 78 µM; in assay [2] it was 2.66 µM; in assay [3], 24.4 µM; in [4], > 100 µM; in assay [6] it was > 100 µM; in [10], 5.39 µM. For the same molecule, the figures for the GI50 in assay [7] and in assay [8] were 4.17 µM and 11.3 µM, respectively. Moreover, the TGI is > 100 µM in [1]; 12.3 µM in assay [2]; > 100 µM in assay [3]; > 100 µM in assay [4]; > 100 µM in [6]; > 100 µM in [10]. Also, the TGI in [7] was 19.2 µM; in [8], 76.7 µM.

For the molecule `CC(C)CCCC(C)[C@H]1CCC2[C@@H]3CCC4Nc5c(cnn5-c5ccccc5)C[C@]4(C)C3CC[C@@]21C` (some centres not stated), the TGI in [1] was > 100 µM; in [2], > 100 µM; in [3] it was > 100 µM; in assay [4], > 100 µM; in assay [5] it was 79.8 µM; in [6], > 100 µM. The TGI in assay [9], in assay [7] and in [8] was > 100 µM throughout.

`CCOC(=O)CCn1ncc(Cl)c(Cl)c1=O`: the TGI in assay [1] stood at 29.3 µM; in [2], 25.3 µM; in assay [3], 14.5 µM; in assay [4], 32.1 µM; in [5], 36 µM; in assay [6] it was 20 µM. For the same molecule, the TGI in assay [9] stood at 6.49 µM; in assay [7], 34.7 µM; in assay [8], 0.834 µM.

As for `CC(C)OP(=O)(OC(C)C)/C(N)=N/Nc1ccc([N+](=O)[O-])cc1`, the TGI in assay [1], in assay [2], in [3], in assay [4], in assay [5] and in [6] was > 100 µM throughout. Also, the TGI in assay [9], in assay [7] and in assay [8] was > 100 µM in each case.

With `Cc1c2c(c(C)c3c4c(oc13)CCCC4)C=NCC2`, the TGI in assay [1] was 31.7 µM; in [2], 31.5 µM; in assay [3] it was 44.5 µM; in [4], 32.1 µM; in assay [5] it was 32 µM; in assay [6], 33 µM. Also, the TGI in assay [9] was 43.4 µM; in assay [7], > 100 µM; in assay [8], 31.3 µM.

As to `C[Si](C)(C)/C=C\CCO`, the TGI in assay [1], in [3], in assay [4], in [5], in assay [6] and in assay [9] was > 100 µM each time. Moreover, the TGI in assay [7] and in assay [8] was > 100 µM throughout.

For `CC(=O)[O-].[Mn+3].[O-]c1ccccc1C=NCCNCCN=Cc1ccccc1[O-]`, the GI50 in assay [1], in assay [2], in assay [3], in [6], in assay [9] and in assay [7] was > 100 µM in each case. For the same molecule, the GI50 in assay [8] was 66 µM. Moreover, the TGI in assay [1], in assay [2], in assay [3], in assay [6], in [9] and in assay [7] was > 100 µM in each case. Further, in assay [8], the TGI is > 100 µM.
